[PEt] = P-ethoxy (ethyl phosphotriester) internucleoside linkage
Test: Adverse events in study 2003-0578 (NCI CTCAE grading)
Settings: all treatment groups

BP1001: liposome-incorporated P-ethoxy antisense oligodeoxynucleotide (5′-ATATTTGGCGATGGCTTC-3′, SEQ ID NO: 1) specific to grb2 mRNA, in neutral DOPC liposomes (DNA, all [PEt], methylation of C not given here; incorporated in neutral DOPC liposomes)
AML progression, number of patients (AML at enrollment (n = 30)): 19 | Abdominal Pain ≥Grade 3, number of patients (AML at enrollment (n = 30)): 1 | Acidosis ≥Grade 3, number of patients (AML at enrollment (n = 30)): 3 | Acute kidney injury ≥Grade 3, number of patients (AML at enrollment (n = 30)): 3 | Asthenia ≥Grade 3, number of patients (AML at enrollment (n = 30)): 1 | Back Pain ≥Grade 3, number of patients (AML at enrollment (n = 30)): 1 | Blood and lymphatic system disorders ≥Grade 3, number of patients (AML at enrollment (n = 30)): 10 | Cardiac disorders ≥Grade 3, number of patients (AML at enrollment (n = 30)): 1 | Cataract ≥Grade 3, number of patients (AML at enrollment (n = 30)): 1 | Dyspnea ≥Grade 3, number of patients (AML at enrollment (n = 30)): 3 | Extremity Lower Edema ≥Grade 3, number of patients (AML at enrollment (n = 30)): 1 | Eye disorders ≥Grade 3, number of patients (AML at enrollment (n = 30)): 1 | Febrile neutropenia ≥Grade 3, number of patients (AML at enrollment (n = 30)): 3 | Gastrointestinal disorders ≥Grade 3, number of patients (AML at enrollment (n = 30)): 1 | General disorders and administration site conditions ≥Grade 3, number of patients (AML at enrollment (n = 30)): 4 | Hallucinations ≥Grade 3, number of patients (AML at enrollment (n = 30)): 1 | Heart failure ≥Grade 3, number of patients (AML at enrollment (n = 30)): 1 | Hepatic failure ≥Grade 3, number of patients (AML at enrollment (n = 30)): 2 | Hepatobiliary disorders ≥Grade 3, number of patients (AML at enrollment (n = 30)): 2 | Hypocalcemia ≥Grade 3, number of patients (AML at enrollment (n = 30)): 1 | Hypoglycemia ≥Grade 3, number of patients (AML at enrollment (n = 30)): 1 | Hypokalemia ≥Grade 3, number of patients (AML at enrollment (n = 30)): 3 | Hyponatremia ≥Grade 3, number of patients (AML at enrollment (n = 30)): 1 | Hypotension ≥Grade 3, number of patients (AML at enrollment (n = 30)): 3 | Hypovolemia ≥Grade 3, number of patients (AML at enrollment (n = 30)): 1 | Hypoxia ≥Grade 3, number of patients (AML at enrollment (n = 30)): 4 | Investigations ≥Grade 3, number of patients (AML at enrollment (n = 30)): 2 | Leukocytosis ≥Grade 3, number of patients (AML at enrollment (n = 30)): 6 | Metabolism and nutritional disorders ≥Grade 3, number of patients (AML at enrollment (n = 30)): 8 | Multi-organ failure ≥Grade 3, number of patients (AML at enrollment (n = 30)): 2 | Musculoskeletal and connective tissue disorders ≥Grade 3, number of patients (AML at enrollment (n = 30)): 1 | Neoplasms benign, malignant, and unspecified (incl. cysts and polyps) ≥Grade 3, number of patients (AML at enrollment (n = 30)): 2 | Patients with AEs ≥Grade 3, number of patients (AML at enrollment (n = 30)): 23 | Penile Pain ≥Grade 3, number of patients (AML at enrollment (n = 30)): 1 | Platelet count decreased ≥Grade 3, number of patients (AML at enrollment (n = 30)): 2 | Pleural Effusions ≥Grade 3, number of patients (AML at enrollment (n = 30)): 1 | Pneumonia ≥Grade 3, number of patients (AML at enrollment (n = 30)): 4 | Psychiatric disorders ≥Grade 3, number of patients (AML at enrollment (n = 30)): 1 | Renal and urinary disorders ≥Grade 3, number of patients (AML at enrollment (n = 30)): 3 | Reproductive system and breast disorders ≥Grade 3, number of patients (AML at enrollment (n = 30)): 1 | Respiratory distress ≥Grade 3, number of patients (AML at enrollment (n = 30)): 2 | Respiratory failure ≥Grade 3, number of patients (AML at enrollment (n = 30)): 3 | Respiratory, thoracic, and mediastinal disorders ≥Grade 3, number of patients (AML at enrollment (n = 30)): 10 | Tumor lysis syndrome ≥Grade 3, number of patients (AML at enrollment (n = 30)): 1 | Vascular disorders ≥Grade 3, number of patients (AML at enrollment (n = 30)): 3 | AML progression, number of patients (CML at enrollment (n = 5)): 5 | Abdominal Pain ≥Grade 3, number of patients (CML at enrollment (n = 5)): 0 | Acidosis ≥Grade 3, number of patients (CML at enrollment (n = 5)): 0 | Acute kidney injury ≥Grade 3, number of patients (CML at enrollment (n = 5)): 1 | Asthenia ≥Grade 3, number of patients (CML at enrollment (n = 5)): 1 | Back Pain ≥Grade 3, number of patients (CML at enrollment (n = 5)): 0 | Blood and lymphatic system disorders ≥Grade 3, number of patients (CML at enrollment (n = 5)): 2 | Cardiac disorders ≥Grade 3, number of patients (CML at enrollment (n = 5)): 1 | Cataract ≥Grade 3, number of patients (CML at enrollment (n = 5)): 0 | Dyspnea ≥Grade 3, number of patients (CML at enrollment (n = 5)): 0 | Extremity Lower Edema ≥Grade 3, number of patients (CML at enrollment (n = 5)): 0 | Eye disorders ≥Grade 3, number of patients (CML at enrollment (n = 5)): 0 | Febrile neutropenia ≥Grade 3, number of patients (CML at enrollment (n = 5)): 0 | Gastrointestinal disorders ≥Grade 3, number of patients (CML at enrollment (n = 5)): 0 | General disorders and administration site conditions ≥Grade 3, number of patients (CML at enrollment (n = 5)): 2 | Hallucinations ≥Grade 3, number of patients (CML at enrollment (n = 5)): 0 | Heart failure ≥Grade 3, number of patients (CML at enrollment (n = 5)): 1 | Hepatic failure ≥Grade 3, number of patients (CML at enrollment (n = 5)): 0 | Hepatobiliary disorders ≥Grade 3, number of patients (CML at enrollment (n = 5)): 0 | Hypocalcemia ≥Grade 3, number of patients (CML at enrollment (n = 5)): 1 | Hypoglycemia ≥Grade 3, number of patients (CML at enrollment (n = 5)): 1 | Hypokalemia ≥Grade 3, number of patients (CML at enrollment (n = 5)): 1 | Hyponatremia ≥Grade 3, number of patients (CML at enrollment (n = 5)): 1 | Hypotension ≥Grade 3, number of patients (CML at enrollment (n = 5)): 0 | Hypovolemia ≥Grade 3, number of patients (CML at enrollment (n = 5)): 0 | Hypoxia ≥Grade 3, number of patients (CML at enrollment (n = 5)): 0 | Investigations ≥Grade 3, number of patients (CML at enrollment (n = 5)): 0 | Leukocytosis ≥Grade 3, number of patients (CML at enrollment (n = 5)): 2 | Metabolism and nutritional disorders ≥Grade 3, number of patients (CML at enrollment (n = 5)): 4 | Multi-organ failure ≥Grade 3, number of patients (CML at enrollment (n = 5)): 1 | Musculoskeletal and connective tissue disorders ≥Grade 3, number of patients (CML at enrollment (n = 5)): 0 | Neoplasms benign, malignant, and unspecified (incl. cysts and polyps) ≥Grade 3, number of patients (CML at enrollment (n = 5)): 0 | Patients with AEs ≥Grade 3, number of patients (CML at enrollment (n = 5)): 4 | Penile Pain ≥Grade 3, number of patients (CML at enrollment (n = 5)): 0 | Platelet count decreased ≥Grade 3, number of patients (CML at enrollment (n = 5)): 0 | Pleural Effusions ≥Grade 3, number of patients (CML at enrollment (n = 5)): 0 | Pneumonia ≥Grade 3, number of patients (CML at enrollment (n = 5)): 0 | Psychiatric disorders ≥Grade 3, number of patients (CML at enrollment (n = 5)): 0 | Renal and urinary disorders ≥Grade 3, number of patients (CML at enrollment (n = 5)): 1 | Reproductive system and breast disorders ≥Grade 3, number of patients (CML at enrollment (n = 5)): 0 | Respiratory distress ≥Grade 3, number of patients (CML at enrollment (n = 5)): 1 | Respiratory failure ≥Grade 3, number of patients (CML at enrollment (n = 5)): 0 | Respiratory, thoracic, and mediastinal disorders ≥Grade 3, number of patients (CML at enrollment (n = 5)): 1 | Tumor lysis syndrome ≥Grade 3, number of patients (CML at enrollment (n = 5)): 2 | Vascular disorders ≥Grade 3, number of patients (CML at enrollment (n = 5)): 0 | AML progression, number of patients (MDS at enrollment (n = 4)): 2 | Abdominal Pain ≥Grade 3, number of patients (MDS at enrollment (n = 4)): 0 | Acidosis ≥Grade 3, number of patients (MDS at enrollment (n = 4)): 0 | Acute kidney injury ≥Grade 3, number of patients (MDS at enrollment (n = 4)): 0 | Asthenia ≥Grade 3, number of patients (MDS at enrollment (n = 4)): 0 | Back Pain ≥Grade 3, number of patients (MDS at enrollment (n = 4)): 0 | Blood and lymphatic system disorders ≥Grade 3, number of patients (MDS at enrollment (n = 4)): 0 | Cardiac disorders ≥Grade 3, number of patients (MDS at enrollment (n = 4)): 1 | Cataract ≥Grade 3, number of patients (MDS at enrollment (n = 4)): 0 | Dyspnea ≥Grade 3, number of patients (MDS at enrollment (n = 4)): 0 | Extremity Lower Edema ≥Grade 3, number of patients (MDS at enrollment (n = 4)): 0 | Eye disorders ≥Grade 3, number of patients (MDS at enrollment (n = 4)): 0 | Febrile neutropenia ≥Grade 3, number of patients (MDS at enrollment (n = 4)): 0 | Gastrointestinal disorders ≥Grade 3, number of patients (MDS at enrollment (n = 4)): 0 | General disorders and administration site conditions ≥Grade 3, number of patients (MDS at enrollment (n = 4)): 0 | Hallucinations ≥Grade 3, number of patients (MDS at enrollment (n = 4)): 0 | Heart failure ≥Grade 3, number of patients (MDS at enrollment (n = 4)): 1 | Hepatic failure ≥Grade 3, number of patients (MDS at enrollment (n = 4)): 0 | Hepatobiliary disorders ≥Grade 3, number of patients (MDS at enrollment (n = 4)): 0 | Hypocalcemia ≥Grade 3, number of patients (MDS at enrollment (n = 4)): 0 | Hypoglycemia ≥Grade 3, number of patients (MDS at enrollment (n = 4)): 0 | Hypokalemia ≥Grade 3, number of patients (MDS at enrollment (n = 4)): 0

Source: US20200032271A1, “COMBINATION THERAPY WITH LIPOSOMAL ANTISENSE OLIGONUCLEOTIDES” (Bio-Path Holdings, Inc., priority 2016, published 2020)
